In the experiment the target is γ-secretase (Homo sapiens, UniProt P49768). Put plainly: Cellular γ-secretase assay (inhibition of Aβ42 secretion, AlphaLisa). The following applies: Human neuroglioma H4 cells overexpressing human APP695 Swedish double mutation (K595N/M596L); 24 hr compound incubation; secreted Aβ42 in supernatant. Format: cell-based. The method, then:
Human neuroglioma H4 cells overexpressing human APP695 with the Swedish double mutation (K595N/M596L) were plated at 30,000 cells/well/100 μl in 96-well plates in IMDM media containing 10% FCS, 0.2 mg/l Hygromycin B and incubated at 37° C., 5% CO2.
3-4 hr post plating, compounds are a diluted in media and 50 μl is added as 1.5-fold concentrate to achieve the final concentration. Compound incubation is performed for 24 hr. Final doses typically range from 4 μM down to 0.0013 μM in half-log steps resulting in a eight point dose response curve.
Appropriate controls using vehicle only and reference compound were applied to this assay. The final concentration of Me2SO was 0.4%.
After incubation at 37° C., 5% CO2, the supernatant was subjected to quantification of secreted Aβ42 by the means of an AlphaLisa assay kit (Human Amyloid beta 1-42 Kit: Cat # AL203C, Perkin Elmer). 20 μl of the cell culture supernatant was transferred to an assay plate. Then 10 μl of a mixture of the AlphaLisa coupled capture antibody and the biotinylated detection antibody was added and incubated for 3 hours at room temperature while softly shaking the assay plate. After a further addition of 20 μl of the Donor beads the assay plate was incubated for 30 min at room temperature and constant shaking without exposure to direct light. The assay plate was then read on a Paradigm AlphaLisa Reader using the build-in program with excitation at 680 nm and emission at […].
The measured signals were then used to calculate IC50 values for inhibition of Aβ42 secretion by nonlinear regression fit analysis using XLfit 5.3 software (IDBS).
On to `Cc1nsc(N2CC3CCC(C2)C3Nc2nc3c(OC(C)C(F)(F)F)cccn3n2)n1` (single isomer, unassigned) [Example 5, N-[(8-endo)-3-(3-methyl-1,2,4-thiadiazol-5-yl)-3-azabicyclo[3.2.1]octan-8-yl]-8-[(2R or 2S)-1,1,1-trifluoropropan-2-yl]oxy-[1,2,4]triazolo[1,5-a]pyridin-2-amine], for which the EC50 is 0.027 µM.

The molecule `Cc1nsc(N2CC3CCC(C2)C3Nc2nc3c(OC(C)C(F)(F)F)cccn3n2)n1` (single isomer, unassigned) [Example 6, N-[(8 endo)-3-(3-methyl-1,2,4-thiadiazol-5-yl)-3-azabicyclo[3.2.1]octan-8-yl]-8-[(2S or 2R)-1,1,1-trifluoropropan-2-yl]oxy-[1,2,4]triazolo[1,5-a]pyridin-2-amine] came in with an EC50 of 0.016 µM.

The molecule `Cc1cc(N2CC3CCC(C2)C3Nc2nc3c(O[C@H](C)C(F)(F)F)nccn3n2)sn1` (single isomer, unassigned) [Example 35, N-[(8 endo)-3-(3-methylisothiazol-5-yl)-3-azabicyclo[3.2.1]octan-8-yl]-8-((2R or 2S)-1,1,1-trifluoropropan-2-yl)oxy)-[1,2,4]triazolo[1,5-a]pyrazin-2-amine] returned an EC50 of 0.006 µM.

`Cc1cc(N2CC3CCC(C2)C3Nc2nc3c(O[C@@H](C)C(F)(F)F)nccn3n2)sn1` (single isomer, unassigned) [Example 36, N-[(8 endo)-3-(3-methylisothiazol-5-yl)-3-azabicyclo[3.2.1]octan-8-yl]-8-((2S or 2R)-1,1,1-trifluoropropan-2-yl)oxy)-[1,2,4]triazolo[1,5-a]pyrazin-2-amine] showed an EC50 of 0.006 µM.

The molecule `Cc1cc(N2C[C@H]3CC[C@@H](C2)[C@H]3Nc2nc3c(OC(C)C(F)(F)F)cccn3n2)on1` (single isomer, unassigned) [Example 43, N-[(8 endo)-3-(3-methyl-1,2-oxazol-5-yl)-3-azabicyclo[3.2.1]octan-8-yl]-8-[(2R or 2S)-1,1,1-trifluoropropan-2-yl]oxy-[1,2,4]triazolo[1,5-a]pyridin-2-amine] returned an EC50 of 0.027 µM.

`Cc1noc(N2CC3CCC(C2)C3Nc2nc3c(O[C@H](C)C(F)(F)F)ccc(C(F)(F)F)n3n2)n1` (single isomer, unassigned) [Example 81, N-[(8-endo)-3-(3-methyl-1,2,4-oxadiazol-5-yl)-3-azabicyclo[3.2.1]octan-8-yl]-5-(trifluoromethyl)-8-[(1R or 1S)-2,2,2-trifluoro-1-methyl-ethoxy]-[1,2,4]triazolo[1,5-a]pyridin-2-amine] had an EC50 of 0.043 µM.

Take “N[(8 endo)-3-(6-methylpyrimidin-4-yl)-3-azabicyclo[3.2.1]octan-8-yl]-8-(2,2,3,3,3-pentafluoropropoxy)-[1,2,4]triazolo[1,5-a]pyridin-2-amine [Example 54]”: the EC50 is 0.014 µM.

For the origin of these results see US10562903B2, “Bridged piperidine derivatives” (Hoffmann-La Roche Inc., priority 2015, dated 2020).
